The values that follow come from ChEMBL document CHEMBL4680375 (ACS Med Chem Lett, 2021).

The target of test [1] is T1, NAD-dependent protein deacetylase sirtuin-1 (Homo sapiens, UniProt Q96EB6).
T1 sequence (Q96EB6 whole entry): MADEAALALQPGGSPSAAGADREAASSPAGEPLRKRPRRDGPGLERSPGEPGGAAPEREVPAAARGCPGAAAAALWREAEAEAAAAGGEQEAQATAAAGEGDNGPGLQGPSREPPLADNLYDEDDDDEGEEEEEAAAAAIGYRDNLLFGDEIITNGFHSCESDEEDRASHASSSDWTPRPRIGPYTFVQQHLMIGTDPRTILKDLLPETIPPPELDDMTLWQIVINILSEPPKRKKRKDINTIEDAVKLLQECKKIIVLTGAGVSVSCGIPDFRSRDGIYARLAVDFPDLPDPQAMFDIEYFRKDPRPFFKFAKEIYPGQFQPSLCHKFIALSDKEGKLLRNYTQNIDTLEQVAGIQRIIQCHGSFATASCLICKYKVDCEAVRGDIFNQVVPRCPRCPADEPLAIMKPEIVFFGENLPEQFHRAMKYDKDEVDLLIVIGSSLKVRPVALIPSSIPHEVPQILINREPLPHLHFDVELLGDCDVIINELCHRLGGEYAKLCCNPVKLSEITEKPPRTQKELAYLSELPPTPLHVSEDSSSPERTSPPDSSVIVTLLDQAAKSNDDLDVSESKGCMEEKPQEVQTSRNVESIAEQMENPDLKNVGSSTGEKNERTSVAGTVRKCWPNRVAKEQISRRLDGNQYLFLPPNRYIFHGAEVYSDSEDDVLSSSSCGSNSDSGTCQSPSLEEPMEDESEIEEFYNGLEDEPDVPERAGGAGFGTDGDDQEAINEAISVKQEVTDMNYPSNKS
The test is described as follows: Inhibition of N-terminal hexa-His-tagged human SIRT1 (156 to 664 residues) expressed in Escherichia coli BL21 (DE3) assessed as deacetylation of Abz-labeled acetyl peptide using Abz-GVLKacAYNO2GY-NH2 peptide as substrate incubated for 30 mins in presence of NAD+ by fluorescence microplate reader assay. To be noted: read-out: IC50.

For test [2], the target named is T2, NAD-dependent protein deacetylase sirtuin-2 (Homo sapiens, UniProt Q8IXJ6).
T2 sequence (Q8IXJ6 whole entry): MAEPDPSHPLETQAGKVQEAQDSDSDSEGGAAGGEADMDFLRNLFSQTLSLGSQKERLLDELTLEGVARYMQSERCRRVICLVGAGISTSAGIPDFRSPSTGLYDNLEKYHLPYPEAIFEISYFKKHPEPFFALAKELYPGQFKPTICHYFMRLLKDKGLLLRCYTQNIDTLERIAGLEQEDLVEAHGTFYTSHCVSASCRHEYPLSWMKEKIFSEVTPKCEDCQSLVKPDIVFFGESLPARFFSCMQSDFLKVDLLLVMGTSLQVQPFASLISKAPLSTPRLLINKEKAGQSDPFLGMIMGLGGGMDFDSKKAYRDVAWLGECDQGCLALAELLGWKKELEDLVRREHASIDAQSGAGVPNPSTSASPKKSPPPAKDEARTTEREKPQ
Put plainly: Inhibition of GST-fusion tagged human SIRT2 (34 to 356 residues) expressed in Escherichia coli BL21 (DE3) using Abz-GVLKacAYNO2GY-NH2 peptide as substrate incubated for 30 mins in presence of NAD+ by fluorescence microplate reader assay.

Test [3] deals with NAD-dependent protein deacylase sirtuin-5, mitochondrial (Homo sapiens, UniProt Q9NXA8). The test is described as follows: Inhibition of N-terminal 8His-tagged human SIRT5 (34 to 302 residues) expressed in Escherichia coli Rosetta2 (DE3) using Abz-GVLKacAYNO2GY-NH2 peptide as substrate incubated for 30 mins in presence of NAD+ by fluorescence microplate reader assay. To be noted: read-out: IC50.

For test [4], the target named is NAD-dependent protein deacylase sirtuin-6 (Homo sapiens, UniProt Q8N6T7). Put plainly: Inhibition of recombinant N-terminal hexa-His-tagged SIRT6 (3 to 318 residues) (unknown origin) expressed in Escherichia coli BL21 (DE3) using RHKKac-AMC as substrate incubated for 2 hrs in presence of NAD+ by fluorescence microplate reader assay.
Test [5] concerns the target T3, NAD-dependent protein deacetylase sirtuin-1 (Homo sapiens) (UniProt Q96EB6).
T3 sequence (whole entry): T1 sequence (Q96EB6 whole entry)
Put plainly: Mixed-type inhibition of N-terminal hexa-His-tagged human SIRT1 (156 to 664 residues) expressed in Escherichia coli BL21 (DE3) assessed as decrease in initial velocity V0 at 0.47 to 1.98 uM using varying levels Abz-GVLKacAYNO2GY-NH2 peptide as substrate in presence of NAD+ by Lineweaver-burk plot analysis. To be noted: dose 0.47-1.98 µM.

In test [6] the target is T3, NAD-dependent protein deacetylase sirtuin-1 (Homo sapiens). The test is described as follows: Mixed-type inhibition of N-terminal hexa-His-tagged human SIRT1 (156 to 664 residues) expressed in Escherichia coli BL21 (DE3) assessed as decrease in Km at 0.47 to 1.98 uM using varying levels Abz-GVLKacAYNO2GY-NH2 peptide as substrate in presence of NAD+ by Lineweaver-burk plot analysis. Conditions: dose 0.47-1.98 µM.

For test [7] the target is unchanged. The test is described as follows: Non-competitive inhibition of N-terminal hexa-His-tagged human SIRT1 (156 to 664 residues) expressed in Escherichia coli BL21 (DE3) assessed as decrease in initial velocity V0 at 0.47 to 1.98 uM using Abz-GVLKacAYNO2GY-NH2 as substrate in presence of varying level of NAD+ by Lineweaver-burk plot analysis. Conditions: dose 0.47-1.98 µM.

Test [8] has the same target. The test is described as follows: Non-competitive inhibition of N-terminal hexa-His-tagged human SIRT1 (156 to 664 residues) expressed in Escherichia coli BL21 (DE3) assessed as effect on Km at 0.47 to 1.98 uM using Abz-GVLKacAYNO2GY-NH2 as substrate in presence of varying level of NAD+ by Lineweaver-burk plot analysis. To be noted: dose 0.47-1.98 µM.
Test [9] deals with T1, NAD-dependent protein deacetylase sirtuin-1. The test is described as follows: Inhibition of wild type N-terminal hexa-His-tagged human SIRT1 (156 to 664 residues) expressed in Escherichia coli BL21 (DE3) assessed as dissociation equilibrium constant using Abz-GVLKacAYNO2GY-NH2 as substrate in presence of varying level of NAD+ by Lineweaver-burk plot analysis.
Test [10] has as its target NAD-dependent protein deacetylase sirtuin-1 (Homo sapiens, UniProt Q96EB6, F273L). The test is described as follows: Inhibition of N-terminal hexa-His-tagged human SIRT1 F273L mutant (156 to 664 residues) expressed in Escherichia coli BL21 (DE3) assessed as dissociation equilibrium constant using Abz-GVLKacAYNO2GY-NH2 as substrate in presence of varying level of NAD+ by Lineweaver-burk plot analysis.

For test [11], the target named is NAD-dependent protein deacetylase sirtuin-1 (Homo sapiens, UniProt Q96EB6, N346A). The test is described as follows: Inhibition of N-terminal hexa-His-tagged human SIRT1 N346A mutant (156 to 664 residues) expressed in Escherichia coli BL21 (DE3) assessed as dissociation equilibrium constant using Abz-GVLKacAYNO2GY-NH2 as substrate in presence of varying level of NAD+ by Lineweaver-burk plot analysis.

Test [12] deals with NAD-dependent protein deacetylase sirtuin-1 (Homo sapiens, UniProt Q96EB6, I347A). Put plainly: Inhibition of N-terminal hexa-His-tagged human SIRT1 I347A mutant (156 to 664 residues) expressed in Escherichia coli BL21 (DE3) assessed as dissociation equilibrium constant using Abz-GVLKacAYNO2GY-NH2 as substrate in presence of varying level of NAD+ by Lineweaver-burk plot analysis.

Test [13] can be described thus: Inhibition of N-terminal hexa-His-tagged human SIRT1 D348A mutant (156 to 664 residues) expressed in Escherichia coli BL21 (DE3) assessed as dissociation equilibrium constant using Abz-GVLKacAYNO2GY-NH2 as substrate in presence of varying level of NAD+ by Lineweaver-burk plot analysis.
Test [14] has as its target NAD-dependent protein deacetylase sirtuin-1 (Homo sapiens, UniProt Q96EB6, F414A). Put plainly: Inhibition of N-terminal hexa-His-tagged human SIRT1 F414A mutant (156 to 664 residues) expressed in Escherichia coli BL21 (DE3) assessed as dissociation equilibrium constant using Abz-GVLKacAYNO2GY-NH2 as substrate in presence of varying level of NAD+ by Lineweaver-burk plot analysis.

Test [15] addresses T3, NAD-dependent protein deacetylase sirtuin-1 (Homo sapiens). Put plainly: Inhibition of SIRT1 in human SH-SY5Y cells assessed as increase in acetylated p53 level at 10 uM measured after 72 hrs in presence of ATRA by Western blot analysis. The format is cell-based.
The target of test [16] is T1, NAD-dependent protein deacetylase sirtuin-1. The test is described as follows: Inhibition of His-tagged SIRT1 (unknown origin) expressed in Escherichia coli codon plus (DE3) using acetylated p53 as substrate.
Test [17] has as its target T4, NAD-dependent protein deacetylase sirtuin-3, mitochondrial (Homo sapiens, UniProt Q9NTG7).
T4 sequence (Q9NTG7 whole entry): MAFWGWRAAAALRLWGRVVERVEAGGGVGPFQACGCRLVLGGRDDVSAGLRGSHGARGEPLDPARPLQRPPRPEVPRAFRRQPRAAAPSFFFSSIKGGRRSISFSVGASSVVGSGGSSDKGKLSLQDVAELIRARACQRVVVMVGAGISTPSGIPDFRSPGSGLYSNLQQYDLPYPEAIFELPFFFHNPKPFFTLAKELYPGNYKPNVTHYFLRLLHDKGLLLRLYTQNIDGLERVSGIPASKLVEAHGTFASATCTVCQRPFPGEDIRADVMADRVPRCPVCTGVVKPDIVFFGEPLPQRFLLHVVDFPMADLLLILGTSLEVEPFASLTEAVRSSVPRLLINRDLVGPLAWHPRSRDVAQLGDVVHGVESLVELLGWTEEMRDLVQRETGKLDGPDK
The test is described as follows: Inhibition of SIRT3 (unknown origin).

Calls of active or inactive are those of the source. The rule behind the calls is not given here.

As usually defined, the IC50 is the concentration that inhibits the measured activity by half. Usually Ki stands for the dissociation constant of the complex between target and ligand, obtained from inhibition or displacement.

Chain of NAD-dependent protein deacylase sirtuin-6 (Q8N6T7 whole entry, the tested form may be a part): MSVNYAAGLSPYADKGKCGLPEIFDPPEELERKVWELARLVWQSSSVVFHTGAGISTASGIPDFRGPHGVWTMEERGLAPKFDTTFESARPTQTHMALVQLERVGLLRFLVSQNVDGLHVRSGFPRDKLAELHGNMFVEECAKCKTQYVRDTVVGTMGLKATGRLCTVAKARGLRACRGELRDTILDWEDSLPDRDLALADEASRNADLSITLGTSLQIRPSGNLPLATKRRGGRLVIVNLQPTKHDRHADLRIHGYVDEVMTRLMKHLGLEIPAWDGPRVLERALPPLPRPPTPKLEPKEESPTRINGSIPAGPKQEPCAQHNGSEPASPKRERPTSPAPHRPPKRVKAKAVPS
Chain of NAD-dependent protein deacetylase sirtuin-1 (Homo sapiens, UniProt Q96EB6, N346A) (Q96EB6 2-747 N346A limits assumed): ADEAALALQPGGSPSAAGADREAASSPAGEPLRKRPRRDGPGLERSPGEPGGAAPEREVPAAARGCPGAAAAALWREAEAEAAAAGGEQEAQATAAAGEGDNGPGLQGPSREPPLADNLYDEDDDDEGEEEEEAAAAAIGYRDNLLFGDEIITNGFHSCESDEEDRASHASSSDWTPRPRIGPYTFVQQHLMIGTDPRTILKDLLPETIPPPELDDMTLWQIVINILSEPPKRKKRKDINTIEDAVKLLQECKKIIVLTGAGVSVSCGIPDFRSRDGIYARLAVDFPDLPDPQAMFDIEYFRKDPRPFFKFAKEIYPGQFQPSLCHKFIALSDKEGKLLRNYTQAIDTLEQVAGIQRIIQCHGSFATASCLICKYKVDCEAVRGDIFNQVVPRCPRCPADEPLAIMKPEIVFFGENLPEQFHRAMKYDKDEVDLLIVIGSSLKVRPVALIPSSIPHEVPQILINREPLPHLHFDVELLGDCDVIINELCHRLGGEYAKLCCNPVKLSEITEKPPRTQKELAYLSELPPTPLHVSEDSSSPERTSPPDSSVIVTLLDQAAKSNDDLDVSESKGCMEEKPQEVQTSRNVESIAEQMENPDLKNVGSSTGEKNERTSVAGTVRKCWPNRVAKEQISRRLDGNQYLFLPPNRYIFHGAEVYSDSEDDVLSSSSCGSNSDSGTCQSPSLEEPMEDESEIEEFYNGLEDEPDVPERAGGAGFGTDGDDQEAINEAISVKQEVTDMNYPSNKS
Chain of NAD-dependent protein deacylase sirtuin-5, mitochondrial (Q9NXA8 whole entry, the tested form may be a part): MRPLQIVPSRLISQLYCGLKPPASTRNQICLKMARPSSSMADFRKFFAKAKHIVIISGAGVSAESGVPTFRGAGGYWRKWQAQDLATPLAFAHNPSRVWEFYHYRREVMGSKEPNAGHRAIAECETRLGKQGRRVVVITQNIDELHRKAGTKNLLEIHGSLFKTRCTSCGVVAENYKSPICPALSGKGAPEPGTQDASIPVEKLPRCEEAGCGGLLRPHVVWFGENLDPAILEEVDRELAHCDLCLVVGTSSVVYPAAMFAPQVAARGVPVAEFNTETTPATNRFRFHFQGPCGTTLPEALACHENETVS
Chain of NAD-dependent protein deacetylase sirtuin-1 (Homo sapiens, UniProt Q96EB6, F414A) (Q96EB6 2-747 F414A limits assumed): as the sequence (Q96EB6 2-747 N346A limits assumed) above, with A345N, F413A counted along it
Chain of NAD-dependent protein deacetylase sirtuin-1 (Homo sapiens, UniProt Q96EB6, F273L) (Q96EB6 2-747 F273L limits assumed): as the sequence (Q96EB6 2-747 N346A limits assumed) above, with F272L, A345N counted along it
Chain of NAD-dependent protein deacetylase sirtuin-1 (Homo sapiens, UniProt Q96EB6, I347A) (Q96EB6 2-747 I347A limits assumed): as the sequence (Q96EB6 2-747 N346A limits assumed) above, with A345N, I346A counted along it

Regarding `COc1cc(C=C2C(=O)OC(c3ccccc3)OC2=O)cc(Br)c1O` (configuration not stated), the IC50 was 1310 nM in [1], 54000 nM in [2], 19800 nM in [3] and “Not Active” in [4]. In addition, the inhibition entry in test [5], in test [6], in test [7] and in [8] was “Active” in each case. Moreover, the Ki in test [9] came to 100 nM; in test [10], 650 nM; in [11], 1940 nM; in [12], 710 nM; in test [13], 7060 nM; in [14], 18200 nM. In addition, in test [15], the “increase in acetylated p53 level (qualitative)” value is “Active”.
For `CCC(Sc1nnc2c(n1)[nH]c1ccccc12)C(=O)N1c2ccccc2Sc2ccccc21` (configuration not stated), the IC50 in [16] turned out to be 100 nM.
In test [17], `CC1=CCC(C(=O)/N=C2\CC=C(S(=O)(=O)O)c3cc(S(=O)(=O)O)cc(S(=O)(=O)O)c32)=C/C1=N/C(=O)C1=CC=C/C(=N\C(=O)/N=C2\C=CC=C(C(=O)/N=C3/CC(C(=O)/N=C4\CC=C(S(=O)(=O)O)c5cc(S(=O)(=O)O)cc(S(=O)(=O)O)c54)=CC=C3C)C2)C1` returned an IC50 of 22000 nM.
